Experimental data published in PMC7830743 (Journal of medicinal chemistry, 2020).
Entries after “also recorded” stand apart in the source; their conditions may differ.

Legend:
[1] = test system: tumor LDH activity (A673 flank xenograft); assay: In vivo LDHA activity in A673 xenograft tumor mouse model; conditions: single IV 50 mg/kg, A673 xenograft mice
[2] = RLM stability assay, single time point; conditions: single-point (15 min) measurement; >30 min is highest estimable
[3] = biological target: LDHA (Homo sapiens, UniProt P00338); assay: Biochemical LDHA inhibition assay
[4] = test system: A673 cells; assay: Cellular lactate production assay in A673 cells; assay type: cell-based, human; conditions: Homo sapiens, A673, 0.5 h, read-out: A673 cells lactate inh. IC50
[5] = test system: A673 cells; assay: Cytotoxicity assay in A673 cells; assay type: cell-based, human; conditions: Homo sapiens, A673, 48 h, read-out: A673 cells Cytotox. IC50
[6] = test system: MiaPaCa-2 cells; assay: Cellular lactate production assay in MiaPaCa-2 cells; assay type: cell-based; conditions: Homo sapiens, MIA PaCa-2, 0.5 h, read-out: MiaPaCa-2 cells lactate inh. IC50
[7] = test system: MiaPaCa-2 cells; assay: Cytotoxicity assay in MiaPaCa-2 cells; assay type: cell-based; conditions: Homo sapiens, MIA PaCa-2, 48 h, read-out: MiaPaCa-2 cells Cytotox. IC50
[8] = biological target: LDHA with C-terminal HiBiT fusion tag (Homo sapiens, UniProt P00338); assay: SplitLuc CETSA; assay type: cell-based
[9] = Kinetic solubility assay; assay type: physicochemical; conditions: PBS buffer
[10] = Mouse pharmacokinetic studies; assay type: in vivo, CD1 mice; conditions: male, CD1, mouse, plasma, iv, 10 mg/kg
[11] = Liver cytosolic stability; assay type: in vitro ADME, and rat; conditions: human, mouse, rat, liver cytosol
[12] = Metabolic stability in hepatocytes; assay type: in vitro ADME, and mouse; conditions: rat, dog, mouse
[13] = BBB-PAMPA permeability assay; assay type: in vitro ADME; conditions: pH 7.4
[14] = biological target: T1, CYP450 2C8 (Homo sapiens, UniProt P10632); assay: CYP450 inhibition, 2C8; assay type: in vitro ADME
T1 sequence (P10632 1-490): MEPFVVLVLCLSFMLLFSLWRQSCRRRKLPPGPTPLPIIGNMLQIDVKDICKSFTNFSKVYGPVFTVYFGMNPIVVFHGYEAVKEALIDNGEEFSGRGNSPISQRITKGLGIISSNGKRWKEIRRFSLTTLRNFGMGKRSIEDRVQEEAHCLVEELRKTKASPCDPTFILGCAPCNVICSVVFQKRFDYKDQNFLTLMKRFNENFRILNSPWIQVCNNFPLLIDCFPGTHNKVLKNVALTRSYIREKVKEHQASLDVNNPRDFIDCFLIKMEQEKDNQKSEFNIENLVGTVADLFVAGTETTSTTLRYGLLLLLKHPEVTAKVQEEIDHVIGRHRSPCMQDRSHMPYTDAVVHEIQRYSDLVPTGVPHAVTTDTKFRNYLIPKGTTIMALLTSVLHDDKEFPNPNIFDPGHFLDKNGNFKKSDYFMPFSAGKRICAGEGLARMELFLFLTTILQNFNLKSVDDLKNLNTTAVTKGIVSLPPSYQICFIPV

[15] = biological target: T2, CYP450 2B6 (Homo sapiens, UniProt P20813); assay: CYP450 inhibition, 2B6; assay type: in vitro ADME
T2 sequence (P20813 1-491): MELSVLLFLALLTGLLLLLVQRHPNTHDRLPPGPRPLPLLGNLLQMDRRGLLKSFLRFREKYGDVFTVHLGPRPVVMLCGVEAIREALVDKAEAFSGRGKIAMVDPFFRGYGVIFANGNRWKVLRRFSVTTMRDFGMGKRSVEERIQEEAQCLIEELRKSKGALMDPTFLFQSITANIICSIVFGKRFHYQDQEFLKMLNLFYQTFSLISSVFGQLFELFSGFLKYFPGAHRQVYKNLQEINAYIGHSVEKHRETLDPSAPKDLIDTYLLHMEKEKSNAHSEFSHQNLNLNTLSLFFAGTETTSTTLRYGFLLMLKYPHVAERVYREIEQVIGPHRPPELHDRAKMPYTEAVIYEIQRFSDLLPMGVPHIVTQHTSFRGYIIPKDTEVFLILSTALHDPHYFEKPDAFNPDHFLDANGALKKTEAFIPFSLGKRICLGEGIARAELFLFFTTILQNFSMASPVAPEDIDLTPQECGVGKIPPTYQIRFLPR

[16] = Metabolite ID; assay type: in vitro ADME; conditions: also in the presence of GSH
[17] = test system: CYP; assay: CYP induction; assay type: in vitro ADME; conditions: at 10 μM
[18] = Ames assay

Row | Structure (SMILES) | IC50 [3] | IC50 [4] | IC50 [5] | IC50 [6] | IC50 [7] | IC50 [8] | aq solubility at pH 7.4 [9] | other results
1 | CCCC#Cc1cc(-c2nn(-c3nc(C(=O)O)cs3)c(CC3CC3)c2Cc2ccc(S(N)(=O)=O)c(F)c2)ccc1F [Compound 14, 2-(5-(Cyclopropylmethyl)-3-(4-fluoro-3-(pent-1-yn-1-yl)phenyl)-4-(3-fluoro-4-sulfamoylbenzyl)-1H-pyrazol-1-yl)thiazole-4-carboxylic Acid] |  |  |  |  |  |  |  | effect on LDH activity in tumors (in words) [1]: less effects; RLM stability T1/2 [2]: metabolized quickly
2 | CCCCC#Cc1cc(-c2nn(-c3nc(C(=O)O)cs3)c(CC3CC3)c2Cc2ccc(S(N)(=O)=O)c(F)c2)ccc1F [Compound 15, 2-(5-(Cyclopropylmethyl)-3-(4-fluoro-3-(hex-1-yn-1-yl)phenyl)-4-(3-fluoro-4-sulfamoylbenzyl)-1H-pyrazol-1-yl)thiazole-4-carboxylic Acid] |  |  |  |  |  |  |  | RLM stability T1/2 [2]: metabolized quickly
3 | CC1(C#Cc2cc(-c3nn(-c4nc(C(=O)O)cs4)c(CC4CC4)c3Cc3ccc(S(N)(=O)=O)c(F)c3)ccc2F)COC1 [Compound 26, 2-(5-(Cyclopropylmethyl)-3-(4-fluoro-3-((3-methyloxetan-3-yl)-ethynyl)phenyl)-4-(3-fluoro-4-sulfamoylbenzyl)-1H-pyrazol-1-yl)-thiazole-4-carboxylic Acid] | 10 nM | 1050 nM | 1180 nM | 898 nM | 1240 nM | 84 nM | significantly diminished | 
4 | NS(=O)(=O)c1ccc(Cc2c(-c3ccc(F)c(C#CC4(F)CCOC4)c3)nn(-c3nc(C(=O)O)cs3)c2CC2CC2)cc1F (stereo not shown) [Compound 30, 2-(5-(Cyclopropylmethyl)-3-(4-fluoro-3-((3-fluorotetrahydrofuran-3-yl)ethynyl)phenyl)-4-(3-fluoro-4-sulfamoylbenzyl)-1H-pyrazol-1-yl)thiazole-4-carboxylic Acid] | 1 nM | 1060 nM | 1050 nM | 867 nM | 882 nM | 201 nM | significantly diminished | 
5 | NS(=O)(=O)c1ccc(Cc2c(-c3ccc(F)c(C#CC4(O)CCOC4)c3)nn(-c3nc(C(=O)O)cs3)c2CC2CC2)cc1F (stereo not shown) [Compound 31, 2-(5-(Cyclopropylmethyl)-3-(4-fluoro-3-((3-hydroxytetrahydrofuran-3-yl)ethynyl)phenyl)-4-(3-fluoro-4-sulfamoylbenzyl)-1H-pyrazol-1-yl)thiazole-4-carboxylic Acid] | 5 nM | 5940 nM | 2640 nM | 3870 nM | 1740 nM | 815 nM |  | 
6 | NS(=O)(=O)c1ccc(Cc2c(-c3ccc(F)c(C#CCN4CCCC4)c3)nn(-c3nc(C(=O)O)cs3)c2CC2CC2)cc1F [Compound 39, 2-(5-(Cyclopropylmethyl)-3-(4-fluoro-3-(3-(pyrrolidin-1-yl)prop-1-yn-1-yl)phenyl)-4-(3-fluoro-4-sulfamoylbenzyl)-1H-pyrazol-1-yl)-thiazole-4-carboxylic Acid] |  |  |  |  |  |  | significantly diminished | 
7 | Cc1cnc(C#Cc2cc(-c3nn(-c4nc(C(=O)O)cs4)c(CC4CC4)c3Cc3ccc(S(N)(=O)=O)c(F)c3)ccc2F)s1 [Compound 47, 2-(5-(Cyclopropylmethyl)-3-(4-fluoro-3-((5-methylthiazol-2-yl)-ethynyl)phenyl)-4-(3-fluoro-4-sulfamoylbenzyl)-1H-pyrazol-1-yl)-thiazole-4-carboxylic Acid] |  |  |  |  |  |  | significantly diminished | clearance at 24 h [10]: 128 mL/min/kg; effect on LDH activity in tumors (in words) [1]: less effects
8 | Cn1cncc1C#Cc1cc(-c2nn(-c3nc(C(=O)O)cs3)c(CC3CC3)c2Cc2ccc(S(N)(=O)=O)c(F)c2)ccc1F [Compound 48, 2-(5-(Cyclopropylmethyl)-3-(4-fluoro-3-((1-methyl-1H-imidazole-5-yl)ethynyl)phenyl)-4-(3-fluoro-4-sulfamoylbenzyl)-1H-pyrazol-1-yl)thiazole-4-carboxylic Acid] |  |  |  |  |  |  | significantly diminished | 
9 | Cc1ccc(C#Cc2cccc(-c3nn(-c4nc(C(=O)O)cs4)c(CC4CC4)c3Cc3ccc(S(N)(=O)=O)c(F)c3)c2)s1 [Compound 52, 2-(5-(Cyclopropylmethyl)-4-(3-fluoro-4-sulfamoylbenzyl)-3-(3((5-methylthiophen-2-yl)-ethynyl)phenyl)-1H-pyrazol-1-yl)thiazole4-carboxylic Acid] |  |  |  |  |  |  |  | half-life [11]: > 2 h; half-life [12]: > 2.5 h; PAMPA-BBB permeability [13]: low permeability; IC50 [14]: 7500 nM; IC50 [15]: 14000 nM; metabolite ID (in vitro) [16]: no significant phase I or II metabolites; CYP induction [17]: no induction at 10 μM; Ames [18]: not active; also recorded: negative; clearance at 24 h [10]: 10.4 mL/min/kg; effect on LDH activity in tumors (in words) [1]: significantly reduced
10 | Cc1nc(C#Cc2cccc(-c3nn(-c4nc(C(=O)O)cs4)c(CC4CC4)c3Cc3ccc(S(N)(=O)=O)c(F)c3)c2)cs1 [Compound 65, 2-(5-(Cyclopropylmethyl)-4-(3-fluoro-4-sulfamoylbenzyl)-3-(3-((2-methylthiazol-4-yl)ethynyl)phenyl)-1H-pyrazol-1-yl)thiazole-4-carboxylic Acid] |  |  |  |  |  |  | significantly diminished | 
11 | Cc1cnc(C#Cc2cccc(-c3nn(-c4nc(C(=O)O)cs4)c(CCC4CC4)c3Cc3ccc(S(N)(=O)=O)c(F)c3)c2)s1 [Compound 80, 2-(5-(2-Cyclopropylethyl)-4-(3-fluoro-4-sulfamoylbenzyl)-3-(3((5-methylthiazol-2-yl)ethynyl)phenyl)-1H-pyrazol-1-yl)thiazole-4-carboxylic Acid] |  |  |  |  |  |  | significantly diminished | 
12 | Cc1ccc(C#Cc2cccc(-c3nn(-c4nc(C(=O)O)cs4)c(C4CC45CC5)c3Cc3ccc(S(N)(=O)=O)c(F)c3)c2)s1 (stereo not shown) [Compound 87, 2-(4-(3-Fluoro-4-sulfamoylbenzyl)-3-(3-((5-methylthiophen-2-yl)ethynyl)phenyl)-5-(spiro[2.2]pentan-1-yl)-1H-pyrazol-1-yl)-thiazole-4-carboxylic Acid] | 122 nM | 485 nM | 526 nM | 459 nM | 469 nM | 175 nM |  | 
